Results on 14 compounds are retold here after PubChem BioAssay (NCI).

Some test systems named below: NCI-H460 lung; EKVX NSCLC; ACHN renal; K-562 leukemia; M14 melanoma; UO-31 renal; A498 renal; 786-0 renal; CCRF-CEM leukemia; SK-MEL-2 melanoma.
Experiment in all cases: DTP human tumour cell line panel, 48 h

The structures appear in SMILES notation.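 Five compound concentrations were applied to cells in 96-well plates for 48 hours; endpoints were derived by simple linear interpolation of the resulting dose-response curve. The concentration for 50% growth inhibition is given as GI50. TGI: concentration producing complete growth inhibition.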

One may read the TGI as the concentration giving total growth inhibition. Low values mean greater sensitivity of the cells, high ones lower sensitivity of the cells. Turning to `CSc1nc(NC2CCCC2)c2cc[nH]c2n1`, the TGI in the test on NCI-H460 lung, in the test with EKVX NSCLC, with ACHN renal, in the test on K-562 leukemia, in the test on M14 melanoma and with UO-31 renal was greater than 100 µM each time. Moreover, the TGI with A498 renal was 80.3 µM; in the test on 786-0 renal, greater than 100 µM; with CCRF-CEM leukemia, greater than 100 µM.

`CN(C)C(=S)N/N=C\C=N/NC(=S)N(C)C`: the TGI in the test with NCI-H460 lung was greater than 100 µM; in the test with EKVX NSCLC, greater than 100 µM; in the test on K-562 leukemia it was greater than 100 µM; in the test on M14 melanoma it was 3.22 µM; in the test on UO-31 renal, greater than 100 µM; in the test on SK-MEL-2 melanoma, greater than 100 µM. In addition, the TGI in the test on A498 renal was 34.5 µM; in the test with 786-0 renal, greater than 100 µM.

In the case of `COC1=CC(=O)c2ccccc2C1(CCC=C(C)C)C1=NC(C)(C)CO1` (stereo not given), the TGI in the test with NCI-H460 lung, with EKVX NSCLC, in the test on ACHN renal, with K-562 leukemia, in the test on M14 melanoma and in the test on UO-31 renal was greater than 100 µM in each case. Further, the TGI in the test on SK-MEL-2 melanoma, in the test on 786-0 renal and in the test on CCRF-CEM leukemia was greater than 100 µM each time.

Consider `CC(=O)c1ccc(N=Nc2ccc3nonc3c2N)cc1`, for which the TGI in the test with NCI-H460 lung, in the test with EKVX NSCLC, with ACHN renal, with K-562 leukemia, in the test on M14 melanoma and in the test on UO-31 renal was greater than 100 µM each time. Moreover, the TGI with SK-MEL-2 melanoma, in the test with 786-0 renal and with CCRF-CEM leukemia was greater than 100 µM throughout.

One may read the GI50 as the concentration at which growth is held to half of that of the control. As for `Cc1ccc2[nH]cc(-c3nc(-c4c[nH]c5ncccc45)cs3)c2c1`, the GI50 in the test on ACHN renal is greater than 100 µM; in the test on M14 melanoma, greater than 100 µM; in the test on UO-31 renal, 0.244 µM; in the test on SK-MEL-2 melanoma it was greater than 100 µM; in the test on A498 renal it was 3.11 µM; with CCRF-CEM leukemia, greater than 100 µM. Besides, the TGI in the test on ACHN renal, in the test with M14 melanoma, in the test on UO-31 renal, with SK-MEL-2 melanoma, in the test with A498 renal and in the test on CCRF-CEM leukemia was greater than 100 µM throughout.

Regarding `Cc1ccc(N=Nc2c(C)nn(C(=O)CC(=O)Nc3ccccc3)c2C)cc1C`, the TGI in the test with NCI-H460 lung, with EKVX NSCLC, with ACHN renal, in the test with M14 melanoma, in the test on UO-31 renal and in the test on SK-MEL-2 melanoma was greater than 100 µM throughout. The TGI in the test on A498 renal, with 786-0 renal and with CCRF-CEM leukemia was greater than 100 µM throughout.

With `CN(C)c1ccc(/C=N/Nc2nc3ccccc3c(=O)n2-c2ccccc2)cc1`, the TGI in the test with NCI-H460 lung, in the test on ACHN renal, in the test on K-562 leukemia, in the test with M14 melanoma, with UO-31 renal and in the test on A498 renal was greater than 100 µM in each case. Moreover, the TGI in the test on 786-0 renal is 83.3 µM; in the test on CCRF-CEM leukemia, greater than 100 µM.

For the compound `N#CC1=C2Sc3ccccc3N2[C@H](c2ccccc2)[C@H]2COC(=O)[C@@H]12`, the TGI with EKVX NSCLC, in the test on ACHN renal, in the test with M14 melanoma, with UO-31 renal, with SK-MEL-2 melanoma and in the test on A498 renal was greater than 100 µM throughout. The TGI in the test with 786-0 renal is greater than 100 µM; in the test on CCRF-CEM leukemia it was 30.7 µM.

For `O=C(Nc1sccc1S(=O)(=O)c1ccccc1)c1cccnc1`, the TGI with NCI-H460 lung, in the test on EKVX NSCLC, with ACHN renal, in the test on K-562 leukemia, in the test with M14 melanoma and in the test on UO-31 renal was greater than 100 µM throughout. For the same compound, the TGI with SK-MEL-2 melanoma is greater than 100 µM; with 786-0 renal it was greater than 100 µM; with CCRF-CEM leukemia, greater than 24.5 µM.

As to `COc1ccc(N[C@H](CS(=O)c2ccc(C)cc2)c2ccc(F)cc2)cc1` (stereo not given in full), the TGI in the test on NCI-H460 lung, in the test with EKVX NSCLC, in the test on ACHN renal, in the test on K-562 leukemia, with M14 melanoma and with UO-31 renal was greater than 100 µM each time. Besides, the TGI in the test on SK-MEL-2 melanoma, with 786-0 renal and in the test on CCRF-CEM leukemia was greater than 100 µM in each case.

Regarding `COc1cccc2cc(C)c(C(=O)c3ccccc3)nc12`, the TGI with EKVX NSCLC, in the test on ACHN renal, in the test with K-562 leukemia, with M14 melanoma, with UO-31 renal and in the test on SK-MEL-2 melanoma was greater than 100 µM throughout. Moreover, the TGI with 786-0 renal and with CCRF-CEM leukemia was greater than 100 µM in each case.

For the compound `CC(=O)C(C(C)=O)=C1CCCC(O)O1` (stereo not given), the TGI in the test with NCI-H460 lung, in the test with EKVX NSCLC, in the test with ACHN renal, in the test on K-562 leukemia, in the test on M14 melanoma and with UO-31 renal was greater than 100 µM in each case. Also, the TGI with A498 renal, in the test on 786-0 renal and with CCRF-CEM leukemia was greater than 100 µM each time.

For `COc1ccc(N(C(=O)Nc2ccc(Cl)c(Cl)c2)c2ccccc2)cc1`, the TGI in the test on NCI-H460 lung, in the test on EKVX NSCLC, in the test on ACHN renal, with K-562 leukemia, with M14 melanoma and with UO-31 renal was greater than 10 µM in each case. Further, the TGI in the test on A498 renal, in the test on 786-0 renal and with CCRF-CEM leukemia was greater than 10 µM each time.

As to `CC1=NOC2(C1)/C(=N/O)CCC/C2=N\O` (stereo not given), the TGI in the test on NCI-H460 lung, in the test with EKVX NSCLC, in the test with ACHN renal, in the test with K-562 leukemia, in the test with M14 melanoma and in the test with UO-31 renal was greater than 100 µM throughout. In addition, the TGI in the test with SK-MEL-2 melanoma, in the test on 786-0 renal and with CCRF-CEM leukemia was greater than 100 µM throughout.
